The experiment deals with PCSK9 secreted from HepG2 cells. Briefly: PCSK9 secretion assay in HepG2 cells (PCSK9 ELISA). The following applies: 16 hours incubation. In kind it is cell-based. As for the experimental part:
HepG2 cells (from ATCC, Catalog no. HB-8065) were maintained in DMEM (Invitrogen) supplemented with 10% fetal bovine serum (Invitrogen). The day prior to the PCSK9 assay, cells were seeded in 96-well collagen coated plates at 25,000 cells/well.
The compounds of the invention were stored at −20° C. until used. The test article compound was dissolved in 100% ethanol to a 50 mM stock solution. This was then diluted in FBS to a final concentration of 1 mM. This solution was placed in a sonicating water bath for 30 minutes. Subsequent dilutions were then made in FBS supplemented with an equivalent volume of ethanol and mixed by vortexing.
HepG2 cells were seeded onto a collagen coated 96-well plate (Becton Dickinson, Catalog no. 35-4407) the day prior to the assay, as described above. The next day, the cell medium was removed, washed once with […] serum free DMEM to remove any residual PCSK9, and replaced with […] of serum free DMEM. Ten microliters of each compound concentration prepared in FBS was then added. Each concentration of compound was tested in triplicate. The compound was incubated with the cells overnight for 16 hours. Following this incubation, 10 µL of AlamarBlue was added to each well and cells incubated for another 2 hours. The plates were then removed and AlamarBlue fluorescence was measured (excitation, 550 nm and […]) to assess cell viability. Cell culture supernatant was then diluted […] 1× RD5P Calibrator Diluent and PCSK9 ELISA was then performed with […] of this diluted sample, as per the manufacturer's instructions. The ELISA was measured on a Victor X5 multilabel plate reader (PerkinElmer) at an absorbance of 450 nm with background correction measured at 550 nm (The PCSK9 Elisa kits can be purchased from R&D System, Catalog no. DPC900).

Where [1] appears, read: two tested concentrations (6.25 and 25 μM).

Take `CC/C=C\C/C=C\C/C=C\C/C=C\C/C=C\CCCC(=O)NCCNC(=O)C[C@H](O)C[C@H](O)/C=C/c1c(-c2ccc(F)cc2)nc(N(C)S(C)(=O)=O)nc1C(C)C` [Compound 1-43, (5Z,8Z,11Z,14Z,17Z)—N-(2-((3R,5S,E)-7-(4-(4-fluorophenyl)-6-isopropyl-2-(N-methylmethylsulfonamido)pyrimidin-5-yl)-3,5-dihydroxyhept-6-enamido)ethyl)icosa-5,8,11,14,17-pentaenamide]: the “level of PCSK9 secreted from HepG2 cells” value under setting [1] is on record as “did not cause an increase”.

As for `CC/C=C\C/C=C\C/C=C\C/C=C\C/C=C\C/C=C\CCC(=O)NCCNC(=O)C[C@H](O)C[C@@H](O)CC[C@@H]1C2C(=C[C@H](C)CC2OC(=O)C(C)(C)CC)C=C[C@@H]1C` (stereo partly drawn) [Compound I-1, (3R,7S,8S)-8-((3S,5R)-7-((2-((4Z,7Z,10Z,13Z,16Z,19Z)-docosa-4,7,10,13,16,19-hexaenamido)ethyl)amino)-3,5-dihydroxy-7-oxoheptyl)-3,7-dimethyl-1,2,3,7,8,8a-hexahydronaphthalen-1-yl 2,2-dimethylbutanoate], the “level of PCSK9 secreted from HepG2 cells” value runs as follows: (6.25 μM, FIG. 1) “no significant change”; (25 μM, FIG. 1) “decrease”.

Take `CC/C=C\C/C=C\C/C=C\C/C=C\C/C=C\C/C=C\CCC(=O)NCCNC(=O)C[C@H](O)C[C@H](O)CCn1c(-c2ccc(F)cc2)c(-c2ccccc2)c(C(=O)Nc2ccccc2)c1C(C)C` [Compound I-22, 1-((3R,5R)-7-(2-(4Z,7Z,10Z,13Z,16Z,19Z)-docosa-4,7,10,13,16,19-hexaenamidoethylamino)-3,5-dihydroxy-7-oxoheptyl)-5-(4-fluorophenyl)-2-isopropyl-N,4-diphenyl-1H-pyrrole-3-carboxamide]: the “level of PCSK9 secreted from HepG2 cells” value under setting [1] is “no significant change”.

As for `CC(C)c1c(C(=O)Nc2ccccc2)c(-c2ccccc2)c(-c2ccc(F)cc2)n1CC[C@@H](O)C[C@@H](O)CC(=O)O` [atorvastatin, reference compound], the “level of PCSK9 secretion from HepG2 cells” value (1.25, 2.5, 5.0 and 10.0 μM, compared to the control, FIG. 1) is “significant increase”.

In the case of `CC(C)c1nc(N(C)S(C)(=O)=O)nc(-c2ccc(F)cc2)c1/C=C/[C@@H](O)C[C@@H](O)CC(=O)O` [rosuvastatin, reference compound], the “level of PCSK9 secreted from HepG2 cells” value under setting [1] is listed as “increase”.
